Experimental findings from patent US6492365B1, “Microsomal triglyceride transfer protein” (Bristol-Myers Squibb Company, priority 1992, dated 2002) are described below.

Assay [1] relates to HSA secretion from HepG2 cells. Kind of assay: HSA secretion from HepG2 cells (ELISA of culture media). It counts as cell-based, human. As to conditions: 16-hour incubation, up to the maximum dose of 20 μM. On the procedure: HepG2 cells were treated with compound A at the indicated doses for 16 hours. The concentration in the cell culture media of apoB, apoAI and HSA after the incubation period was measured with the appropriate ELISA assay and normalized to total cell protein. The data shown are expressed as a percentage of the control (DMSO only).
The human hepatoblastoma cell line, HepG2, was obtained from the American Type Culture Collection (Rockville, Md.; ATCC accession no. 8065). Cultures were maintained at 37° C. in a 5% carbon dioxide atmosphere in T-75 culture flasks with 12 mL of RPMI 1640 medium containing 10% fetal bovine serum (all cell culture media and buffers were obtained from GIBCO Life Technologies, Gaithersburg, Md.). Cells were subcultured 1:4 once a week and fed fresh medium 3 times a week.
Experiments to measure the effects of compounds A and B on protein secretion were carried out in 48-well plates. HepG2 cells were subcultured 1:2 and allowed to come to confluency at least 24 hours before drug treatment. Before commencement of drug treatment, culture medium was removed, the cells washed once with PBS and 1 mL of fresh medium was added quantitatively. […] The cells were homogenized by trituration with a 1 mL micropipettor, and protein was measured using the Coomassie reagent (Pierce Chemical Co, Rockford, Ill.) as described by the manufacturer. […]
(An ELISA detects its analyte on a solid surface through an enzyme-linked reagent.)

Assay [2] relates to TG secretion from HepG2 cells. Kind of assay: TG secretion from HepG2 cells (3H-glycerol labelling, extraction, TLC). It counts as cell-based. As to conditions: Homo sapiens, 1.25 μM-20 μM, 3H-glycerol labelling for two hours, read-out: IC50 for inhibition of TG secretion. On the procedure: HepG2 cells were treated with Compound A at the indicated doses for […], the last two hours of which were in the presence of 5 μCi/mL 3H-glycerol. The concentration of radiolabelled triglycerides in the cell culture media was measured by quantitative extraction, followed by thin layer chromatography analysis and normalization to total cell protein. The data shown are expressed as a percentage of the control (DMSO only).
HepG2 cells were subcultured into 6-well dishes and allowed to come to confluency at least 24 hours before drug treatment. Prior to addition of the drug, culture media were removed, cells washed once with PBS, and 1 mL of fresh medium (RPMI 1640+10% FBS) was added quatitatively. […]
Total lipids were extracted from the media and analyzed as follows. […] Raw data was normalized to cell protein and expressed as percent of DMSO control.
HepG2 cells were treated with doses of compound A ranging from 1.25 μM-20 μM under conditions identical to those utilized for the apoB, apoAl and HSA secretion experiment. The intracellular pool of TG was radiolabelled for two hours with 3H-glycerol in the presence of vehicle or varying doses of compound A. The accumulation of radiolabelled TG in the medium was measured by quantitative extraction, followed by thin layer chromatography analysis and normalization to total cell protein. […]

Counter-ions that a name gives are not always drawn.

By IC50 is commonly meant the concentration that inhibits the measured activity by half. Regarding `O=C1c2ccccc2CN1C1CCN(CCC(c2ccccc2)c2ccccc2)CC1` [compound A, 2-[1-(3,3-diphenylpropyl)-4-piperdinyl]-2,3-dihydro-3-oxo-1H-isoindole hydrochloride], the “secretion of HSA” value in assay [1] is “unaffected”. The IC50 in assay [2] was roughly 2000 nM.
